{"source": "patent US20240101521A1", "about": "“DIAMINOTRIAZINE COMPOUNDS” (BASF SE, priority 2021, published 2024)", "experiment_in_all_cases": "greenhouse pre-emergence herbicidal test", "assay_type_in_all_cases": "in vivo", "conditions_in_all_cases": "scale 0 to 100", "key": {"[1]": {"system": "Abutilon theophrasti", "from_the_text": "(§1) The culture containers used were plastic flowerpots containing loamy sand with approximately 3.0% of humus as the substrate. The seeds of the test plants were sown separately for each species.\n(§2) For the pre-emergence treatment, the active ingredients, which had been suspended or emulsified in water, were applied directly after sowing by means of finely distributing nozzles. The containers were irrigated gently to promote germination and growth and subsequently covered with transparent plastic hoods until the plants had rooted. This cover caused uniform germination of the test plants, unless this had been impaired by the active ingredients. For the post-emergence treatment, the test plants were first grown to a height of 3 to 15 cm, depending on the plant habit, and only then treated with the active ingredients which had been suspended or emulsified in water. For this purpose, the test plants were either sown directly and grown in the same containers, or they were first grown separately as seedlings and transplanted into the test containers a few days prior to treatment.\n(§3) Depending on the species, the plants were kept at 10-25° C. or 20-35° C., respectively.\n(§4) The test period extended over 2 to 4 weeks. During this time, the plants were tended, and their response to the individual treatments was evaluated.\n(§5) Evaluation was carried out using a scale from 0 to 100. 100 means no emergence of the plants, or complete destruction of at least the aerial moieties, and 0 means no damage, or normal course of growth. A moderate herbicidal activity is given at values of at least 60, a good herbicidal activity is given at values of at least 70, and a very good herbicidal activity is given at values of at least 85.\n(§6) The plants used in the greenhouse experiments were of the following species: […]"}, "[2]": {"system": "Amaranthus retroflexus", "from_the_text": "as §1, §2, §3, §4, §5, §6"}, "[3]": {"system": "Setaria faberi", "from_the_text": "as §1, §2, §3, §4, §5, §6"}, "[4]": {"system": "Echinochloa crus-galli", "from_the_text": "as §1, §2, §3, §4, §5, §6"}}, "data": [{"smiles": "COc1c(Br)cc(Br)c(F)c1Nc1nc(N)nc(C2(F)CCCCC2)n1", "note": "[Example 9]", "values": [{"measurement": "herbicidal activity", "setting": "[1]; pre-emergence, 250 g/ha", "result": 90, "unit": "%"}, {"measurement": "herbicidal activity", "setting": "[2]; pre-emergence, 250 g/ha", "result": 100, "unit": "%"}, {"measurement": "herbicidal activity", "setting": "[3]; pre-emergence, 250 g/ha", "result": 95, "unit": "%"}]}, {"smiles": "C#CC(C)(F)c1nc(N)nc(Nc2c(F)c(F)cc(Cl)c2OC)n1", "note": "(stereo not drawn) [Example 118]", "values": [{"measurement": "herbicidal activity", "setting": "[1]; pre-emergence, 62,5 g/ha", "result": 100, "unit": "%"}, {"measurement": "herbicidal activity", "setting": "[2]; pre-emergence, 62,5 g/ha", "result": 100, "unit": "%"}, {"measurement": "herbicidal activity", "setting": "[3]; pre-emergence, 62,5 g/ha", "result": 100, "unit": "%"}]}, {"smiles": "CC(C)(F)c1nc(N)nc(Nc2c(F)c(F)cc(Br)c2OC(F)F)n1", "note": "[Example 31]", "values": [{"measurement": "herbicidal activity", "setting": "[1]; pre-emergence, 250 g/ha", "result": 100, "unit": "%"}, {"measurement": "herbicidal activity", "setting": "[2]; pre-emergence, 250 g/ha", "result": 100, "unit": "%"}, {"measurement": "herbicidal activity", "setting": "[4]; pre-emergence, 250 g/ha", "result": 100, "unit": "%"}]}, {"smiles": "CC#CCOc1c(Cl)cc(F)c(F)c1Nc1nc(N)nc(C(C)(C)F)n1", "note": "[Example 18]", "values": [{"measurement": "herbicidal activity", "setting": "[1]; pre-emergence, 62,5 g/ha", "result": 100, "unit": "%"}, {"measurement": "herbicidal activity", "setting": "[2]; pre-emergence, 62,5 g/ha", "result": 100, "unit": "%"}, {"measurement": "herbicidal activity", "setting": "[4]; pre-emergence, 62,5 g/ha", "result": 100, "unit": "%"}]}, {"smiles": "COc1c(Br)cc(F)c(F)c1Nc1nc(N)nc(C(C)(F)CCl)n1", "note": "(stereo not drawn) [Example 33]", "values": [{"measurement": "herbicidal activity", "setting": "[1]; pre-emergence, 62,5 g/ha", "result": 100, "unit": "%"}, {"measurement": "herbicidal activity", "setting": "[2]; pre-emergence, 62,5 g/ha", "result": 100, "unit": "%"}, {"measurement": "herbicidal activity", "setting": "[4]; pre-emergence, 62,5 g/ha", "result": 98, "unit": "%"}]}, {"smiles": "COc1c(Cl)cc(F)c(F)c1Nc1nc(N)nc(C2(F)CC2)n1", "note": "[Example 35]", "values": [{"measurement": "herbicidal activity", "setting": "[1]; pre-emergence, 62,5 g/ha", "result": 100, "unit": "%"}, {"measurement": "herbicidal activity", "setting": "[2]; pre-emergence, 62,5 g/ha", "result": 100, "unit": "%"}, {"measurement": "herbicidal activity", "setting": "[4]; pre-emergence, 62,5 g/ha", "result": 100, "unit": "%"}]}, {"smiles": "CC(C)(F)c1nc(N)nc(Nc2c(F)c(F)cc(Br)c2OCC#CC2CC2)n1", "note": "[Example 29]", "values": [{"measurement": "herbicidal activity", "setting": "[1]; pre-emergence, 31 g/ha", "result": 100, "unit": "%"}, {"measurement": "herbicidal activity", "setting": "[2]; pre-emergence, 31 g/ha", "result": 100, "unit": "%"}, {"measurement": "herbicidal activity", "setting": "[3]; pre-emergence, 31 g/ha", "result": 100, "unit": "%"}]}, {"smiles": "COc1c(Cl)cc(F)c(F)c1Nc1nc(N)nc(C(C)(F)CCl)n1", "note": "(stereo not drawn) [Example 34]", "values": [{"measurement": "herbicidal activity", "setting": "[1]; pre-emergence, 62,5 g/ha", "result": 100, "unit": "%"}, {"measurement": "herbicidal activity", "setting": "[2]; pre-emergence, 62,5 g/ha", "result": 100, "unit": "%"}, {"measurement": "herbicidal activity", "setting": "[4]; pre-emergence, 62,5 g/ha", "result": 100, "unit": "%"}]}, {"smiles": "COc1c(Br)cc(F)c(F)c1Nc1nc(N)nc(C(C)(C)F)n1", "note": "[Example 6, N4-(5-Bromo-2,3-difluoro-6-methoxy-phenyl)-6-(1-fluoro-1-methyl-ethyl)-1,3,5-triazine-2,4-diamine]", "values": [{"measurement": "herbicidal activity", "setting": "[1]; pre-emergence, 125 g/ha", "result": 100, "unit": "%"}, {"measurement": "herbicidal activity", "setting": "[4]; pre-emergence, 125 g/ha", "result": 100, "unit": "%"}, {"measurement": "herbicidal activity", "setting": "[3]; pre-emergence, 125 g/ha", "result": 100, "unit": "%"}]}, {"smiles": "CC(C)(F)c1nc(N)nc(Nc2c(F)c(F)cc(Br)c2OCF)n1", "note": "[Example 106]", "values": [{"measurement": "herbicidal activity", "setting": "[1]; pre-emergence, 62,5 g/ha", "result": 100, "unit": "%"}, {"measurement": "herbicidal activity", "setting": "[4]; pre-emergence, 62,5 g/ha", "result": 100, "unit": "%"}, {"measurement": "herbicidal activity", "setting": "[3]; pre-emergence, 62,5 g/ha", "result": 100, "unit": "%"}]}, {"smiles": "COc1c(C)cc(Br)c(F)c1Nc1nc(N)nc(C(C)(C)F)n1", "note": "[Example 51]", "values": [{"measurement": "herbicidal activity", "setting": "[1]; pre-emergence, 62 g/ha", "result": 100, "unit": "%"}, {"measurement": "herbicidal activity", "setting": "[2]; pre-emergence, 62 g/ha", "result": 100, "unit": "%"}, {"measurement": "herbicidal activity", "setting": "[3]; pre-emergence, 62 g/ha", "result": 100, "unit": "%"}]}, {"smiles": "C#CC(C)Oc1c(F)cc(F)c(F)c1Nc1nc(N)nc(C2(F)CCCC2)n1", "note": "(stereo not drawn) [Example 105]", "values": [{"measurement": "herbicidal activity", "setting": "[1]; pre-emergence, 62,5 g/ha", "result": 100, "unit": "%"}, {"measurement": "herbicidal activity", "setting": "[4]; pre-emergence, 62,5 g/ha", "result": 100, "unit": "%"}, {"measurement": "herbicidal activity", "setting": "[3]; pre-emergence, 62,5 g/ha", "result": 100, "unit": "%"}]}, {"smiles": "CC#CCOc1c(Cl)cc(F)c(F)c1Nc1nc(N)nc(C2(F)CC2)n1", "note": "[Example 57]", "values": [{"measurement": "herbicidal activity", "setting": "[1]; pre-emergence, 31 g/ha", "result": 98, "unit": "%"}, {"measurement": "herbicidal activity", "setting": "[4]; pre-emergence, 31 g/ha", "result": 100, "unit": "%"}, {"measurement": "herbicidal activity", "setting": "[3]; pre-emergence, 31 g/ha", "result": 100, "unit": "%"}]}, {"smiles": "C=CC(C)(F)c1nc(N)nc(Nc2c(F)c(F)cc(Br)c2OC)n1", "note": "(stereo not drawn) [Example 121]", "values": [{"measurement": "herbicidal activity", "setting": "[1]; pre-emergence, 62,5 g/ha", "result": 100, "unit": "%"}, {"measurement": "herbicidal activity", "setting": "[2]; pre-emergence, 62,5 g/ha", "result": 100, "unit": "%"}, {"measurement": "herbicidal activity", "setting": "[3]; pre-emergence, 62,5 g/ha", "result": 100, "unit": "%"}]}, {"smiles": "COc1c(Cl)cc(F)c(F)c1Nc1nc(N)nc(C(C)(F)F)n1", "note": "[Example 49, N4-(5-chloro-2,3-difluoro-6-methoxy-phenyl)-6-(1,1-difluoroethyl)-1,3,5-triazine-2,4-diamine]", "values": [{"measurement": "herbicidal activity", "setting": "[1]; pre-emergence, 62,5 g/ha", "result": 100, "unit": "%"}, {"measurement": "herbicidal activity", "setting": "[2]; pre-emergence, 62,5 g/ha", "result": 100, "unit": "%"}, {"measurement": "herbicidal activity", "setting": "[4]; pre-emergence, 62,5 g/ha", "result": 100, "unit": "%"}]}, {"smiles": "CC#CCOc1c(Br)cc(F)c(F)c1Nc1nc(N)nc(C(C)(C)OC)n1", "note": "[Example 85]", "values": [{"measurement": "herbicidal activity", "setting": "[1]; pre-emergence, 62 g/ha", "result": 85, "unit": "%"}, {"measurement": "herbicidal activity", "setting": "[4]; pre-emergence, 62 g/ha", "result": 100, "unit": "%"}, {"measurement": "herbicidal activity", "setting": "[3]; pre-emergence, 62 g/ha", "result": 98, "unit": "%"}]}, {"smiles": "CC#CCOc1c(Br)cc(Br)c(F)c1Nc1nc(N)nc(C(C)(C)F)n1", "note": "[Example 64]", "values": [{"measurement": "herbicidal activity", "setting": "[1]; pre-emergence, 62 g/ha", "result": 100, "unit": "%"}, {"measurement": "herbicidal activity", "setting": "[4]; pre-emergence, 62 g/ha", "result": 100, "unit": "%"}, {"measurement": "herbicidal activity", "setting": "[3]; pre-emergence, 62 g/ha", "result": 100, "unit": "%"}]}, {"smiles": "COc1c(Cl)cc(F)c(F)c1Nc1nc(N)nc(C(C)(C)F)n1", "note": "[Example 7, N4-(5-Chloro-2,3-difluoro-6-methoxy-phenyl)-6-(1-fluoro-1-methyl-ethyl)-1,3,5-triazine-2,4-diamine]", "values": [{"measurement": "herbicidal activity", "setting": "[1]; pre-emergence, 125 g/ha", "result": 100, "unit": "%"}, {"measurement": "herbicidal activity", "setting": "[4]; pre-emergence, 125 g/ha", "result": 100, "unit": "%"}, {"measurement": "herbicidal activity", "setting": "[3]; pre-emergence, 125 g/ha", "result": 100, "unit": "%"}]}, {"smiles": "C#CC(C)Oc1c(Cl)cc(F)c(F)c1Nc1nc(N)nc(C(C)(C)F)n1", "note": "(stereo not drawn) [Example 99]", "values": [{"measurement": "herbicidal activity", "setting": "[1]; pre-emergence, 62 g/ha", "result": 100, "unit": "%"}, {"measurement": "herbicidal activity", "setting": "[2]; pre-emergence, 62 g/ha", "result": 100, "unit": "%"}, {"measurement": "herbicidal activity", "setting": "[3]; pre-emergence, 62 g/ha", "result": 100, "unit": "%"}]}, {"smiles": "COc1c(Cl)cc(F)c(F)c1Nc1nc(N)nc(C(C)(C)OC)n1", "note": "[Example 36]", "values": [{"measurement": "herbicidal activity", "setting": "[1]; pre-emergence, 62,5 g/ha", "result": 100, "unit": "%"}, {"measurement": "herbicidal activity", "setting": "[2]; pre-emergence, 62,5 g/ha", "result": 100, "unit": "%"}, {"measurement": "herbicidal activity", "setting": "[4]; pre-emergence, 62,5 g/ha", "result": 100, "unit": "%"}]}, {"smiles": "CCC#CCOc1c(Br)cc(F)c(F)c1Nc1nc(N)nc(C(C)(C)F)n1", "note": "[Example 20]", "values": [{"measurement": "herbicidal activity", "setting": "[1]; pre-emergence, 62,5 g/ha", "result": 100, "unit": "%"}, {"measurement": "herbicidal activity", "setting": "[2]; pre-emergence, 62,5 g/ha", "result": 100, "unit": "%"}, {"measurement": "herbicidal activity", "setting": "[4]; pre-emergence, 62,5 g/ha", "result": 100, "unit": "%"}]}, {"smiles": "CC#CCOc1c(Cl)cc(F)c(F)c1Nc1nc(N)nc(C(C)(F)CCl)n1", "note": "(stereo not drawn) [Example 84]", "values": [{"measurement": "herbicidal activity", "setting": "[1]; pre-emergence, 62 g/ha", "result": 100, "unit": "%"}, {"measurement": "herbicidal activity", "setting": "[4]; pre-emergence, 62 g/ha", "result": 100, "unit": "%"}, {"measurement": "herbicidal activity", "setting": "[3]; pre-emergence, 62 g/ha", "result": 100, "unit": "%"}]}]}
